Assay results reported in patent publication US20250051319A1 (AUGUSTINE THERAPEUTICS, priority 2021, published 2025).

What was measured:
[1] = biological target: human full-length recombinant HDAC1 (Homo sapiens (Human), UniProt Q13547); assay: HDAC1 enzymatic activity assay (alternative protocol, Ac-Gly-Ala-Lys(Ac)-AMC); format: biochemical; conditions: 4 nM enzyme, read-out: HDAC1 biochem
Experimental: (§1) Inhibition of HDAC enzymes was performed in 384-well plate format using human full-length recombinant HDAC1 and HDAC6, isolated from a baculovirus expression system in Sf9 cells (BPS Bioscience). Reaction buffer for HDAC1 contained 50 mM Tris HCl pH 8.0, 137 mM NaCl, 2.7 mM KCl, 1 mM MgCl2, 0.1 mg/mL BSA, and reaction buffer for HDAC6 contained 50 mM Tris/HCl, pH 8.0, 137 mM NaCl, 2.7 mM KCl, 250 μM EDTA, 1 mM DTT, 0.1 mg/mL BSA. Compounds (dissolved in 100% DMSO) or DMSO (vehicle) were diluted in assay buffer at 3× final assay concentration and then added to assay plates. SAHA ([…]) was used as a positive control. 3× final assay concentration of recombinant enzymes (final assay concentration is 4 nM and 5 nM for HDAC1 and HDAC6, respectively) were preincubated for 10 minutes with test compounds at room temperature. Afterwards, 3× final assay concentration of an acetylated fluorogenic peptide (Ac-Gly-Ala-Lys(Ac))-AMC, Bachem; final assay concentration is 12 µM and 40 µM for HDAC1 and HDAC6, respectively) was added to assay plate, allowing deacetylase reactions to incubate for 60 minutes at room temperature. The developer reagent containing 5 μM SAHA and 50 μM trypsin was added to stop the deacetylase reaction and generate AMNC-fluorescence. 15 minutes after addition of developer reagent, endpoint measurements were taken using CLARIOstar (BMG Labtech) plate reader (excitation/emission: 360/450). Fluorescence signals were normalized for each plate using GraphPad Prism software: reaction HDAC-substrate in presence of DMSO was set to 100% while reaction HDAC-substrate in presence of 10 μM SAHA was set to 0%.

[2] = biological target: catalytic domain 2 (CD2) of HDAC6 (Homo sapiens (Human), UniProt Q9UBN7); assay: Cellular target engagement assay - NanoBRET; format: cell-based; conditions: NanoLuc-HDAC6(CD2) in HEK293T cells, 2 hours, read-out: IC50 (HDAC6(CD2) interaction)
Sequence of catalytic domain 2 (CD2) of HDAC6 (Q9UBN7 482-800): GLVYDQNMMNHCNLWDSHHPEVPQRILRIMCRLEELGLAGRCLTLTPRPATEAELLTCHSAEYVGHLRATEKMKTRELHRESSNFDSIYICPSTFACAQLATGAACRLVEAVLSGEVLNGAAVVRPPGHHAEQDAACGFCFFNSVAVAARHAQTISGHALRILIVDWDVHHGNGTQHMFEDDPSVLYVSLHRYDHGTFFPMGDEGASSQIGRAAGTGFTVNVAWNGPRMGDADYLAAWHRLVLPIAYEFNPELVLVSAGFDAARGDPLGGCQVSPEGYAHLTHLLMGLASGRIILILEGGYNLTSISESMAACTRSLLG

[3] = biological target: human full-length recombinant HDAC6 (Homo sapiens (Human), UniProt Q9UBN7); assay: HDAC6 enzymatic activity assay (alternative protocol, Ac-Gly-Ala-Lys(Ac)-AMC); format: biochemical; conditions: 5 nM enzyme, read-out: HDAC6 biochem
Sequence of human full-length recombinant HDAC6 (Q9UBN7 whole entry): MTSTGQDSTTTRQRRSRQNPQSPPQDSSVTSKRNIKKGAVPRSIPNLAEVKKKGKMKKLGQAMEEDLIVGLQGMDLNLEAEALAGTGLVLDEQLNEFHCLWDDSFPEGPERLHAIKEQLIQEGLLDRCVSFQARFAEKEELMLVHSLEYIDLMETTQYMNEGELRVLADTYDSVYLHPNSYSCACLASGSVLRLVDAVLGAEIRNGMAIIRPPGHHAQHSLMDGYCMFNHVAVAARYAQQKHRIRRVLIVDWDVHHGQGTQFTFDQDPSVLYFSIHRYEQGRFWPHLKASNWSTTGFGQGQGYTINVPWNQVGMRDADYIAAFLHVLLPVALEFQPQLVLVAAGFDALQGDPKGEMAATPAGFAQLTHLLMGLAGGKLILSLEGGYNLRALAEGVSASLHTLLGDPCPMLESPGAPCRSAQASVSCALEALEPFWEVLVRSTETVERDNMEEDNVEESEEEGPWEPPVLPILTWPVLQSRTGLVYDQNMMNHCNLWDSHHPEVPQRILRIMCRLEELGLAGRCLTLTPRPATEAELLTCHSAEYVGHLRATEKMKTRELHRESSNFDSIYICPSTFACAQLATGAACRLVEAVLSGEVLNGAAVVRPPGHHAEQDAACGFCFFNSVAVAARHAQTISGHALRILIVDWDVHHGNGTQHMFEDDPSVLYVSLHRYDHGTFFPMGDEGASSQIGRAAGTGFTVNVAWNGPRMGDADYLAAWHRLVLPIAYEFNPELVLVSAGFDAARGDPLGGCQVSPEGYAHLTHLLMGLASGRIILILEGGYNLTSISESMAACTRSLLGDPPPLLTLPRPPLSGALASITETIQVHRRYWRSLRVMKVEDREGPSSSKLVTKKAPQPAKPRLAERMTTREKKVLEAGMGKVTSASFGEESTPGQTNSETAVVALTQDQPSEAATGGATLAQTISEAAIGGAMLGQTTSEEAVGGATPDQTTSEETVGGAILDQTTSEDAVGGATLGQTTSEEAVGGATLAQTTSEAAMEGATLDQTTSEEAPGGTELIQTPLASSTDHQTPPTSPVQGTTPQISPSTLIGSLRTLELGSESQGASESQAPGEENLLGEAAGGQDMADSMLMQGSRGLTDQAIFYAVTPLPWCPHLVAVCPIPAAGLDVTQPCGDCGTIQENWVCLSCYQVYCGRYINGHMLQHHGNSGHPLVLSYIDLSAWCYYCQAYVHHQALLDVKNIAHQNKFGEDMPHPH
Experimental: as §1

Sequence of human full-length recombinant HDAC1 (Q13547 whole entry): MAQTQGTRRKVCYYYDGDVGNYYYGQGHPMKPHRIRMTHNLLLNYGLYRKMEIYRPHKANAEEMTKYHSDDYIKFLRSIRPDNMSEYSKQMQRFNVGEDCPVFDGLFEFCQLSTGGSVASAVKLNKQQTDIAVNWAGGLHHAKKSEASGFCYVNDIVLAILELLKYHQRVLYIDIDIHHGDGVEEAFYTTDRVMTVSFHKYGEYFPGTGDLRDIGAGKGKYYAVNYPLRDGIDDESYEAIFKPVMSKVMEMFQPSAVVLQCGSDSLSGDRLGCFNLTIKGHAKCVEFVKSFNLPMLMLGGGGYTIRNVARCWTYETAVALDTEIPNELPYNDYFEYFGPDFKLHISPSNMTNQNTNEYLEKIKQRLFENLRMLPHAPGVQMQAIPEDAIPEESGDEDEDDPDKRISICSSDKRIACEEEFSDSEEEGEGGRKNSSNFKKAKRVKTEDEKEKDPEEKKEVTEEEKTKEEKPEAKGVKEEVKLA

An IC50 [1] of over 10000 nM, an IC50 [2] of 100 to 500 nM and an IC50 [3] of at most 100 nM were found for `O=C(CSc1nc(C(F)(F)F)nc2ccccc12)c1ccc(CCN2CCCC2=O)s1` [Example 26, 1-(2-(5-(2-((2-(trifluoromethyl)quinazolin-4-yl)thio)acetyl)thiophen-2-yl)ethyl)pyrrolidin-2-one] in this work.
An IC50 [1] of over 10000 nM, an IC50 [2] of 500 to 1000 nM and an IC50 [3] of at most 100 nM were found for `Cn1ncc2c(SCC(=O)c3cc(F)c(CNC(=O)C(C)(C)C)s3)ncnc21` [Example 28, N-((3-fluoro-5-(2-((1-methyl-1H-pyrazolo[3,4-d]pyrimidin-4-yl)thio)acetyl)thiophen-2-yl)methyl)pivalamide] in this work.
An IC50 [1] of over 10000 nM, an IC50 [2] of 100 to 500 nM and an IC50 [3] of at most 100 nM were found for `CC(C)(C)C(=O)NCCc1ccc(C(=O)CSc2nc(C(F)(F)F)nc3ccccc23)s1` [Example 29, N-(2-(5-(2-((2-(trifluoromethyl)quinazolin-4-yl)thio)acetyl)thiophen-2-yl)ethyl)pivalamide] in this work.
An IC50 [1] of over 10000 nM, an IC50 [2] of at most 100 nM and an IC50 [3] of at most 100 nM were found for `Cn1ncc2c(SCC(=O)c3ccc(CNC(=O)c4ccccc4)s3)ncnc21` [Example 30, N-((5-(2-((1-methyl-1H-pyrazolo[3,4-d]pyrimidin-4-yl)thio)acetyl)thiophen-2-yl)methyl)benzamide] in this work.
An IC50 [1] of over 10000 nM, an IC50 [2] of 100 to 500 nM and an IC50 [3] of at most 100 nM were found for `CN(Cc1ccc(C(=O)CSc2ncnc3c2cnn3C)s1)C(=O)C(C)(C)C` [Example 33, N-methyl-N-((5-(2-((1-methyl-1H-pyrazolo[3,4-d]pyrimidin-4-yl)thio)acetyl)thiophen-2-yl)methyl)pivalamide] in this work.
An IC50 [1] of over 10000 nM, an IC50 [2] of 100 to 500 nM and an IC50 [3] of at most 100 nM were found for `CN(Cc1ccc(C(=O)CSc2ncnc3c2cnn3C)s1)C(=O)C1CC1` [Example 34, N-methyl-N-((5-(2-((1-methyl-1H-pyrazolo[3,4-d]pyrimidin-4-yl)thio)acetyl)thiophen-2-yl)methyl)cyclopropanecarboxamide] in this work.
An IC50 [1] of over 10000 nM, an IC50 [2] of 100 to 500 nM and an IC50 [3] of at most 100 nM were found for `Cc1nc(SCC(=O)c2ccc(CNC(=O)C3CC3)s2)c2ccccc2n1` [Example 35, N-((5-(2-((2-methylquinazolin-4-yl)thio)acetyl)thiophen-2-yl)methyl)cyclopropanecarboxamide] in this work.
An IC50 [1] of over 10000 nM, an IC50 [2] of at most 100 nM and an IC50 [3] of at most 100 nM were found for `O=C(CSc1nc(C(F)(F)F)nc2ccccc12)c1ccc(CCNC(=O)C2CC2)s1` [Example 36, N-(2-(5-(2-((2-(trifluoromethyl)quinazolin-4-yl)thio)acetyl)thiophen-2-yl)ethyl)cyclopropanecarboxamide] in this work.
An IC50 [1] of over 10000 nM, an IC50 [2] of 1000 to 10000 nM and an IC50 [3] of at most 100 nM were found for `O=C(NCCc1ccc(C(=O)CSc2nc(C(F)(F)F)nc3ccccc23)s1)c1ccccc1` [Example 37, N-(2-(5-(2-((2-(trifluoromethyl)quinazolin-4-yl)thio)acetyl)thiophen-2-yl)ethyl)benzamide] in this work.
An IC50 [1] of over 10000 nM, an IC50 [2] of at most 100 nM and an IC50 [3] of at most 100 nM were found for `CC(C)(C)C(=O)NCc1ccc(C(=O)CSc2nc(C(F)(F)F)nc3ccccc23)s1` [Example 38, N-((5-(2-((2-(trifluoromethyl)quinazolin-4-yl)thio)acetyl)thiophen-2-yl)methyl)pivalamide] in this work.
An IC50 [1] of over 10000 nM, an IC50 [2] of 100 to 500 nM and an IC50 [3] of at most 100 nM were found for `CC(C)(C)C(=O)NCc1ccc(C(=O)CSc2nncc3ccccc23)s1` [Example 193, N-((5-(2-(phthalazin-1-ylthio)acetyl)thiophen-2-yl)methyl)pivalamide] in this work.
An IC50 [1] of over 10000 nM, an IC50 [2] of 100 to 500 nM and an IC50 [3] of at most 100 nM were found for `Cc1nnc(SCC(=O)c2ccc(CNC(=O)C(C)(C)C)s2)c2ccccc12` [Example 194, N-((5-(2-((4-methylphthalazin-1-yl)thio)acetyl)thiophen-2-yl)methyl)pivalamide] in this work.
